Residues, ends and D or L forms follow the SMILES beside them.
Legend:
[1] = cited from earlier work
[2] = cited from earlier work; for Sweetness potency: commonly accepted potency figures, weight basis
[3] = type: physicochemical
Description: Traditionally, the beverage industry makes certain carbonated beverages by first making concentrated syrup and then diluting the syrup with water at the time and place of making the beverage. The dilution ratio in such beverages is often 1:5; meaning one part syrup is mixed with five parts water. The beverage often is carbonated at the time of being bottled or otherwise packaged. For any ingredient to be incorporated into such a 1:5 syrup, the solubility of the ingredient in the syrup must be at least six times higher than its desired concentration in the finished beverage. […] It would be advantageous, therefore, to develop improved methods of incorporating rebaudioside D into an aqueous solution.

Row | SMILES | Water solubility (in words) [1] | Sweetness potency [2] | other results
1 | C=C1C[C@@]23CC[C@H]4[C@@](C)(CCC[C@@]4(C)C(=O)O[C@@H]4O[C@H](CO)[C@@H](O)[C@H](O)[C@H]4O)[C@@H]2CC[C@]1(O[C@@H]1O[C@H](CO)[C@@H](O)[C@H](O[C@@H]2O[C@H](CO)[C@@H](O)[C@H](O)[C@H]2O)[C@H]1O[C@@H]1O[C@H](CO)[C@@H](O)[C@H](O)[C@H]1O)C3 [Rebaudioside A, rebaudioside A] | more soluble than stevioside | 150-300 times as sweet as sugar | Solubility in aqueous solution ([1]; room temperature): at least 3000 ppm; Sweetness relative to sucrose ([2]; background statement): approximately 200 times sweeter than sucrose
2 | C=C1C[C@@]23CC[C@H]4[C@@](C)(CCC[C@@]4(C)C(=O)O[C@@H]4O[C@H](CO)[C@@H](O)[C@H](O)[C@H]4O[C@@H]4O[C@H](CO)[C@@H](O)[C@H](O)[C@H]4O)[C@@H]2CC[C@]1(O[C@@H]1O[C@H](CO)[C@@H](O)[C@H](O[C@@H]2O[C@H](CO)[C@@H](O)[C@H](O)[C@H]2O)[C@H]1O[C@@H]1O[C@H](CO)[C@@H](O)[C@H](O)[C@H]1O)C3 [Rebaudioside D, rebaudioside D] | low | 180-200 times as sweet as sugar | Stable solubility in aqueous solution [3]: no more than 450 ppm
3 | COc1ccc(CCC(=O)c2c(O)cc(O[C@@H]3O[C@H](CO)[C@@H](O)[C@H](O)[C@H]3O[C@@H]3O[C@@H](C)[C@H](O)[C@@H](O)[C@H]3O)cc2O)cc1O [Neohesperidin dihydrochalcone] | – | 300 times as sweet as sugar | –
4 | OC[C@H]1O[C@H](O[C@]2(CCl)O[C@H](CCl)[C@@H](O)[C@@H]2O)[C@H](O)[C@@H](O)[C@H]1Cl [Sucralose] | – | 600 times as sweet as sugar | –
5 | COC(=O)[C@H](Cc1ccccc1)NC(=O)[C@@H](N)CC(=O)O [Aspertame] (H-Asp-Phe-OMe) | – | 200 times as sweet as sugar | –
6 | O=C1NS(=O)(=O)c2ccccc21 [Saccharine] | – | 300 times as sweet as sugar | –
7 | COC(=O)[C@H](Cc1ccccc1)NC(=O)[C@H](CC(=O)O)NCCC(C)(C)C [Neotame] | – | 8,000 times as sweet as sugar | –
8 | CC1=CC(=O)[N-]S(=O)(=O)O1.[K+] [Acesulfame-K] | – | 200 times as sweet as sugar | –
9 | C[C@H](CC[C@@H](O[C@@H]1O[C@H](CO[C@@H]2O[C@H](CO)[C@@H](O)[C@H](O)[C@H]2O)[C@@H](O)[C@H](O)[C@H]1O[C@@H]1O[C@H](CO)[C@@H](O)[C@H](O)[C@H]1O)C(C)(C)O)[C@H]1CC[C@@]2(C)[C@@H]3CC=C4[C@@H](CC[C@H](O[C@@H]5O[C@H](CO[C@@H]6O[C@H](CO)[C@@H](O)[C@H](O)[C@H]6O)[C@@H](O)[C@H](O)[C@H]5O)C4(C)C)[C@]3(C)[C@H](O)C[C@]12C [Mogroside V] | – | 100-300 times as sweet as sugar | –
10 | C=C1C[C@@]23CC[C@H]4[C@@](C)(CCC[C@@]4(C)C(=O)O[C@@H]4O[C@H](CO)[C@@H](O)[C@H](O)[C@H]4O)[C@@H]2CC[C@]1(O[C@@H]1O[C@H](CO)[C@@H](O)[C@H](O)[C@H]1O[C@@H]1O[C@H](CO)[C@@H](O)[C@H](O)[C@H]1O)C3 [Stevioside, stevioside] | only sparingly soluble in water | 100-250 times as sweet as sugar | –

Reference: US20200315232A1, “Method to Improve Dispersibility of a Material Having Low Solubility in Water” (PepsiCo, Inc., priority 2012, published 2020)
